# According to ChEMBL document CHEMBL1201862, “PubChem BioAssay data set” (2004):
#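 Values below derive from 48-hour exposures of cells grown in 96-well plates, with endpoints linearly interpolated between the two concentrations bracketing the appropriate inhibition level. GI50 marks 50% less growth.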 The source made the active and inactive calls. No stated cut-off is given here; in the data, active = GI50 up to about 1.1 µM and inactive = higher.
# Assays:
# Test in all cases: NCI tumour cell line growth inhibition, 48 h
# SW-620 = test system: SW-620
# MOLT-4 = test system: MOLT-4
# Malme-3M = test system: Malme-3M
# OVCAR-3 = test system: OVCAR-3
# BT-549 = test system: BT-549
# NCI-H460 = test system: NCI-H460
# A498 = test system: A498
# RPMI-8226 = test system: RPMI-8226
# NCI-H23 = test system: NCI-H23
# DU-145 = test system: DU-145
# HCT-116 = test system: HCT-116
# A549 = test system: A549
# HCT-15 = test system: HCT-15
# NCI/ADR-RES = test system: NCI/ADR-RES
# U-251 = test system: U-251
# OVCAR-5 = test system: OVCAR-5
# MCF7 = test system: MCF7
# UACC-257 = test system: UACC-257
# NCI-H226 = test system: NCI-H226
# IGROV-1 = test system: IGROV-1
# OVCAR-8 = test system: OVCAR-8
# SF-268 = test system: SF-268
# SNB-19 = test system: SNB-19
# HL-60 = test system: HL-60
# SNB-75 = test system: SNB-75
# PC-3 = test system: PC-3
# 786-0 = test system: 786-0
# CCRF-CEM = test system: CCRF-CEM
# HT-29 = test system: HT-29
# COLO 205 = test system: COLO 205
# HOP-62 = test system: HOP-62
# SK-MEL-5 = test system: SK-MEL-5
# OVCAR-4 = test system: OVCAR-4
# ACHN = test system: ACHN
# SK-OV-3 = test system: SK-OV-3
# RXF 393 = test system: RXF 393
# MDA-N = test system: MDA-N
# SK-MEL-28 = test system: SK-MEL-28
# UO-31 = test system: UO-31
# UACC-62 = test system: UACC-62
# Hs-578T = test system: Hs-578T
# HOP-92 = test system: HOP-92
# HCC 2998 = test system: HCC 2998
# EKVX = test system: EKVX
# SN12C = test system: SN12C
# T47D = test system: T47D
# K562 = test system: K562
# SF-295 = test system: SF-295
# LOX IMVI = test system: LOX IMVI
# SR = test system: SR
# KM12 = test system: KM12
# MDA-MB-435 = test system: MDA-MB-435
# CAKI-1 = test system: CAKI-1
# SF-539 = test system: SF-539
# MDA-MB-231 = test system: MDA-MB-231
# NCI-H522 = test system: NCI-H522
# TK-10 = test system: TK-10
# SK-MEL-2 = test system: SK-MEL-2
structure (smiles),measurement,setting,value
Cc1cc(=O)oc2cc(O)ccc12 [HYMECROMONE],GI50,SW-620,> 100 µM (inactive)
same,GI50,MOLT-4,> 100 µM (inactive)
same,GI50,Malme-3M,> 100 µM (inactive)
same,GI50,OVCAR-3,> 100 µM (inactive)
same,GI50,BT-549,88.3 µM (inactive)
same,GI50,NCI-H460,> 100 µM (inactive)
same,GI50,A498,65.8 µM (inactive)
same,GI50,RPMI-8226,> 100 µM (inactive)
same,GI50,NCI-H23,> 100 µM (inactive)
same,GI50,DU-145,> 100 µM (inactive)
same,GI50,HCT-116,> 100 µM (inactive)
same,GI50,A549,> 100 µM (inactive)
same,GI50,HCT-15,> 100 µM
same,GI50,NCI/ADR-RES,> 100 µM (inactive)
same,GI50,U-251,> 100 µM (inactive)
same,GI50,OVCAR-5,> 100 µM (inactive)
same,GI50,MCF7,> 100 µM (inactive)
same,GI50,UACC-257,> 100 µM (inactive)
same,GI50,NCI-H226,> 100 µM (inactive)
same,GI50,IGROV-1,> 100 µM (inactive)
same,GI50,OVCAR-8,> 100 µM (inactive)
same,GI50,SF-268,> 100 µM (inactive)
same,GI50,SNB-19,> 100 µM (inactive)
same,GI50,HL-60,> 100 µM (inactive)
same,GI50,SNB-75,39.1 µM (inactive)
same,GI50,PC-3,> 100 µM (inactive)
same,GI50,786-0,> 100 µM (inactive)
same,GI50,CCRF-CEM,> 100 µM (inactive)
same,GI50,HT-29,> 100 µM (inactive)
same,GI50,COLO 205,> 100 µM (inactive)
same,GI50,HOP-62,> 100 µM (inactive)
same,GI50,SK-MEL-5,> 100 µM (inactive)
same,GI50,OVCAR-4,> 100 µM (inactive)
same,GI50,ACHN,> 100 µM (inactive)
same,GI50,SK-OV-3,> 100 µM (inactive)
same,GI50,RXF 393,> 100 µM (inactive)
same,GI50,MDA-N,> 100 µM (inactive)
same,GI50,SK-MEL-28,> 100 µM (inactive)
same,GI50,UO-31,> 100 µM (inactive)
same,GI50,UACC-62,> 100 µM (inactive)
same,GI50,Hs-578T,> 100 µM (inactive)
same,GI50,HOP-92,79.8 µM (inactive)
same,GI50,HCC 2998,> 100 µM (inactive)
same,GI50,EKVX,> 100 µM (inactive)
same,GI50,SN12C,> 100 µM (inactive)
same,GI50,T47D,> 100 µM (inactive)
same,GI50,K562,> 100 µM (inactive)
same,GI50,SF-295,> 100 µM (inactive)
same,GI50,LOX IMVI,> 100 µM (inactive)
same,GI50,SR,69 µM (inactive)
same,GI50,KM12,> 100 µM (inactive)
same,GI50,MDA-MB-435,> 100 µM (inactive)
same,GI50,CAKI-1,> 100 µM (inactive)
same,GI50,SF-539,> 100 µM (inactive)
same,GI50,MDA-MB-231,> 100 µM (inactive)
same,GI50,NCI-H522,> 100 µM (inactive)
same,GI50,TK-10,> 100 µM (inactive)
same,GI50,SK-MEL-2,> 100 µM (inactive)
